Measurements published in ChEMBL document CHEMBL5257085, “Siderophores: Chemical tools for precise antibiotic delivery” (Bioorg Med Chem Lett, 2023).
Values after ≈ are worked out from the molar mass of the structure shown. One block for each compound: values may come before it.

Tests used:
Acinetobacter baumannii [1] = assay: Potentiation of imipenem-induced antibacterial activity against OXA-24 producing Acinetobacter baumannii ATCC 17978 assessed as fold change in imipenem MIC; type: functional
Acinetobacter baumannii [2] = assay: Potentiation of imipenem-induced antibacterial activity against OXA-143 producing Acinetobacter baumannii ATCC 17978 assessed as fold change in imipenem MIC; type: functional
Acinetobacter baumannii [3] = assay: Potentiation of imipenem-induced antibacterial activity against OXA-235 producing Acinetobacter baumannii ATCC 17978 assessed as fold change in imipenem MIC; type: functional
Acinetobacter baumannii [4] = assay: Potentiation of imipenem-induced antibacterial activity against OXA-23 producing Acinetobacter baumannii ATCC 17978 assessed as fold change in imipenem MIC; type: functional
Acinetobacter baumannii [5] = assay: Potentiation of imipenem-induced antibacterial activity against OXA-58 producing Acinetobacter baumannii ATCC 17978 assessed as fold change in imipenem MIC; type: functional
Escherichia coli [6] = assay: Antibacterial activity against Escherichia coli JW5503 harbouring tolC-knock out mutant assessed as inhibition of bacterial growth incubated for 24 hrs by CLSI protocol based broth microdilution method; type: functional
DNA gyrase = DNA gyrase (Escherichia coli, UniProt P0AES4+P0AES6); assay: Inhibition of Escherichia coli DNA gyrase ATPase activity using pBR322 as substrate incubated for 10 mins in presence of NADH and ATP by supercoiling assay; type: protein-complex assay
Pseudomonas aeruginosa [7] = assay: Antibacterial activity against Pseudomonas aeruginosa assessed as inhibition of bacterial growth incubated for 18 to 48 hrs by two-fold serial dilution method; type: functional; conditions: time 18-48 hrs
Pseudomonas aeruginosa [8] = assay: Antibacterial activity against IMP-1 producing Pseudomonas aeruginosa assessed as inhibition of bacterial growth by CLSI protocol based broth microdilution method; type: functional
Klebsiella pneumoniae [9] = assay: Antibacterial activity against KPC-2 producing Klebsiella pneumoniae assessed as inhibition of bacterial growth by CLSI protocol based broth microdilution method; type: functional
Klebsiella pneumoniae [10] = assay: Antibacterial activity against NDM-1 producing Klebsiella pneumoniae assessed as inhibition of bacterial growth by CLSI protocol based broth microdilution method; type: functional
[11] = test system: Stenotrophomonas maltophilia; assay: Antibacterial activity against L1 producing Stenotrophomonas maltophilia assessed as inhibition of bacterial growth by CLSI protocol based broth microdilution method; type: functional
Pseudomonas aeruginosa [12] = assay: Antibacterial activity against VIM-2 producing Pseudomonas aeruginosa assessed as inhibition of bacterial growth by CLSI protocol based broth microdilution method; type: functional
Klebsiella pneumoniae [13] = assay: Antibacterial activity against KPC-3 producing Klebsiella pneumoniae assessed as inhibition of bacterial growth by CLSI protocol based broth microdilution method; type: functional
Escherichia coli [14] = assay: Antibacterial activity against NDM-1 producing Escherichia coli assessed as inhibition of bacterial growth by CLSI protocol based broth microdilution method; type: functional
Acinetobacter baumannii [15] = assay: Antibacterial activity against OXA-23 producing Acinetobacter baumannii assessed as inhibition of bacterial growth by CLSI protocol based broth microdilution method; type: functional

SMILES: C[C@]1(COC(=O)Cc2ccc(O)c(O)c2)[C@H](C(=O)O)N2C(=O)/C(=C/c3ccccn3)[C@H]2S1(=O)=O
fold change (FC) (Acinetobacter baumannii [1]): 32
fold change (FC) (Acinetobacter baumannii [2]): 32
fold change (FC) (Acinetobacter baumannii [3]): 32
fold change (FC) (Acinetobacter baumannii [4]): 32
fold change (FC) (Acinetobacter baumannii [5]): 32

SMILES: Cc1[nH]c(C(=O)N[C@H]2CCc3nc(NC(=O)CNC(=O)c4ccc(O)c(O)c4)sc3C2)c(Cl)c1Cl
MIC (Escherichia coli [6]): 14 µg/mL (≈ 26 µM)
IC50 (DNA gyrase): 58 nM

MIC (Pseudomonas aeruginosa [7]): > 1020 µM
SMILES: CC(=O)NC[C@H]1CN(c2ccc(N3CCOCC3)c(F)c2)C(=O)O1 [LINEZOLID]

MIC50 (Pseudomonas aeruginosa [8]): 0.12 µg/mL (≈ 0.16 µM)
MIC50 (Klebsiella pneumoniae [9]): 0.12 µg/mL (≈ 0.16 µM)
MIC50 (Klebsiella pneumoniae [10]): 0.12 µg/mL (≈ 0.16 µM)
MIC50 [11]: 0.12 µg/mL (≈ 0.16 µM)
MIC50 (Pseudomonas aeruginosa [12]): 0.12 µg/mL (≈ 0.16 µM)
MIC50 (Klebsiella pneumoniae [13]): 0.12 µg/mL (≈ 0.16 µM)
MIC50 (Escherichia coli [14]): 0.12 µg/mL (≈ 0.16 µM)
MIC50 (Acinetobacter baumannii [15]): 0.12 µg/mL (≈ 0.16 µM)
SMILES: CC(C)(O/N=C(\C(=O)N[C@@H]1C(=O)N2C(C(=O)[O-])=C(C[N+]3(CCNC(=O)c4ccc(O)c(O)c4Cl)CCCC3)CS[C@H]12)c1csc(N)n1)C(=O)O [CEFIDEROCOL]

MIC (Pseudomonas aeruginosa [7]): 128 µM (≈ 92.9 µg/mL)
SMILES: CC(=O)NC[C@H]1CN(c2ccc(N3CCN(C(=O)Cn4cc(COC(=O)NCCCCNC(=O)c5cccc(O)c5O)nn4)CC3)c(F)c2)C(=O)O1
